Test results reported in ChEMBL document CHEMBL1201862, “PubChem BioAssay data set” (2004).
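Where inhibition never reached the appropriate level, the endpoint shown equals the highest concentration tested. Otherwise, values were interpolated linearly from a five-concentration, 48-hour dose response in 96-well plates. At the GI50, growth is halved.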 Activity calls are given as the source filed them. Cut-off read from the data, not from the text of the source: active = GI50 up to about 1.1 µM and inactive = higher.

Key:
Assay in all cases: NCI anticancer screen, dose series, 48 h
DMS-114 = system: DMS-114
DMS-273 = system: DMS-273
HOP-18 = system: HOP-18
KM-20L2 = system: KM-20L2
RXF 631 = system: RXF 631

Measured: GI50

C=C1CCCC2OC(OC)CCC12 (centres undefined)
inactive: DMS-114 > 100 µM | DMS-273 > 100 µM | HOP-18 > 100 µM | KM-20L2 > 100 µM | RXF 631 > 100 µM

O=C1c2ccccc2CC1C1(O)C(=O)Nc2c(Cl)cc(Cl)cc21 (centres undefined)
inactive: DMS-114 21.9 µM | DMS-273 68.4 µM | HOP-18 14.1 µM | KM-20L2 > 100 µM | RXF 631 > 100 µM

COc1cccc(NC(=O)CC(=O)n2nc(C)c(/N=N/c3ccccc3)c2C)c1
inactive: DMS-114 > 100 µM | DMS-273 > 100 µM | HOP-18 12 µM | RXF 631 > 100 µM
